# Strand notation (5' to 3'): a small letter for the sugar, then the base; units joined by * are phosphorothioate-linked, units joined directly phosphodiester-linked; [ ] holds rarer units or linkages, { } end groups; capitals alone tell only the bases. e = 2'-O-(2-methoxyethyl) (MOE); [5mC] = 5-methylcytosine; d = 2'-deoxy (DNA)
# System: GCGR mRNA
# Assay: GCGR mRNA levels in liver, C57/BL6 mice, single i.p. dose (Tables 35-41)
# Format: in vivo, mouse
# Experimental: Prior to quantitative PCR analysis, primer-probe sets specific to the target gene being measured were evaluated for their ability to be “multiplexed” with a GAPDH amplification reaction. After isolation the RNA is subjected to sequential reverse transcriptase (RT) reaction and real-time PCR, both of which are performed in the same well. RT and PCR reagents were obtained from Invitrogen Life Technologies (Carlsbad, Calif.). […] The RT reaction was carried out by incubation for 30 minutes at 48° C. Following a 10 minute incubation at 95° C. to activate the PLATIN 9M® Taq, 40 cycles of a two-step PCR protocol were carried out: 95° C. for 15 seconds (denaturation) followed by 60° C. for 1.5 minutes (annealing/extension).
# 170 μL of RiboGreen® working reagent (RiboGreen® reagent diluted 1:350 in 10 mM Tris-HCl, 1 mM EDTA, pH 7.5) was pipetted into a 96-well plate containing 30 μL purified cellular RNA. The plate was read in a CytoFluor® 4000 (PE Applied Biosystems) with excitation at 485 nm and emission at 530 nm.
# Eight-week old male C57/BL6 mice (Jackson Laboratory, Bar Harbor, Me.) were administered a single dose of GCGR oligonucleotide by intraperitoneal injection at a concentration of […]. Each dose group consisted of four animals. Shown in Table 31 are the sequences, motifs and conjugates of the GCGR antisense compounds used in this study. Bolded residues indicate 2′-O-methoxyethyl (2′-MOE) moieties. All compounds comprise phosphorothioate internucleoside linkages throughout and each cytosine is replaced with 5-methylcytosine. ISIS 386626, ISIS 386627 and ISIS 386628 further comprise a C16 conjugate group attached to the 2′-O position of the sugar via a diamide linkage (2′-OCH2C(═O)N(H)(CH2)4N(H)C(═O)—(CH2)15CH3). GCGR antisense compounds target published GCGR sequences, including Genbank® Accession No. BC031885.1 (SEQ ID NO: 7).
# Mice were sacrificed 48 hours following injection to determine serum transaminase levels (Table 32); liver, white adipose tissue (WAT), spleen and kidney weight (Table 33); cholesterol, triglyceride and glucose levels (Table 34); GCGR mRNA levels (Tables 35-41); and full-length and total oligonucleotide concentration in liver and kidney (Table 42). Endpoints were assessed using methods described herein and well known to those of ordinary skill in the art. Data is included from a pre-treatment bleed (Pre-Bleed) and post-treatment bleed (Post-Bleed).
# To determine whether the phenotypic changes shown above correlated with a decrease in GCGR mRNA, treated animals were evaluated for levels of target mRNA in liver by real time PCR according to methods described herein. Tables 35 to 41 show results from direct comparisons of the antisense compounds targeting GCGR nucleic acid for their effect on target expression. Results are expressed as percent of saline control.
substance,measurement,setting,value
148364 (antisense eT*eG*e[5mC]*eA*e[5mC]*dT*dT*dT*dG*dT*dG*dG*dT*dA*d[5mC]*e[5mC]*eA*eA*eG*eG) [compound 148364],GCGR mRNA levels,"6.25 mg/kg, Table 35 comparison ISIS 148364 & ISIS 386626",62% of saline control
same,GCGR mRNA levels,"6.25 mg/kg, Table 36 comparison ISIS 148364 & ISIS 386627",86% of saline control
same,GCGR mRNA levels,"6.25 mg/kg, Table 37 comparison ISIS 148364 & ISIS 386593",86% of saline control
same,GCGR mRNA levels,"6.25 mg/kg, Table 38 comparison ISIS 148364 & ISIS 386628",101% of saline control
same,GCGR mRNA levels,"6.25 mg/kg, Table 39 comparison ISIS 148364 & ISIS 386594",96% of saline control
same,GCGR mRNA levels,"12.5 mg/kg, Table 35 comparison ISIS 148364 & ISIS 386626",87% of saline control
same,GCGR mRNA levels,"12.5 mg/kg, Table 36 comparison ISIS 148364 & ISIS 386627",105% of saline control
same,GCGR mRNA levels,"12.5 mg/kg, Table 37 comparison ISIS 148364 & ISIS 386593",105% of saline control
same,GCGR mRNA levels,"12.5 mg/kg, Table 38 comparison ISIS 148364 & ISIS 386628",98% of saline control
same,GCGR mRNA levels,"12.5 mg/kg, Table 39 comparison ISIS 148364 & ISIS 386594",102% of saline control
same,GCGR mRNA levels,"25 mg/kg, Table 35 comparison ISIS 148364 & ISIS 386626",79% of saline control
same,GCGR mRNA levels,"25 mg/kg, Table 36 comparison ISIS 148364 & ISIS 386627",87% of saline control
same,GCGR mRNA levels,"25 mg/kg, Table 37 comparison ISIS 148364 & ISIS 386593",74% of saline control
same,GCGR mRNA levels,"25 mg/kg, Table 38 comparison ISIS 148364 & ISIS 386628",77% of saline control
same,GCGR mRNA levels,"25 mg/kg, Table 39 comparison ISIS 148364 & ISIS 386594",98% of saline control
same,GCGR mRNA levels,"50 mg/kg, Table 35 comparison ISIS 148364 & ISIS 386626",36% of saline control
same,GCGR mRNA levels,"50 mg/kg, Table 36 comparison ISIS 148364 & ISIS 386627",63% of saline control
same,GCGR mRNA levels,"50 mg/kg, Table 37 comparison ISIS 148364 & ISIS 386593",56% of saline control
same,GCGR mRNA levels,"50 mg/kg, Table 38 comparison ISIS 148364 & ISIS 386628",42% of saline control
same,GCGR mRNA levels,"50 mg/kg, Table 39 comparison ISIS 148364 & ISIS 386594",59% of saline control
